Test results reported in patent publication US6914045B2, “Glycopeptide antibiotics” (Wyeth Holdings Corporation, priority 2001, dated 2005).
Values after ≈ are worked out from the molar mass of the structure shown.

Key:
Assay in all cases: in vitro antibacterial evaluation, MIC by broth dilution
Type in all cases: cell-based
Escherichia coli = settings: 18 hours at 35° C.
Staphylococcus sp. = settings: broth dilution, 18 hours at 35° C.
How it was run: (§1)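 Read-out: the lowest concentration at which the test strain fails to grow. Serial dilutions (64-0.06 μg/mL) in Muller-Hinton II […], 5×10^5 CFU/mL inoculum, NCCLS M7-A2 procedure.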

Enterococcus sp. = settings: broth dilution, 18 hours at 35° C.
How it was run: as §1

Streptococcus sp. = settings: broth dilution, 18 hours at 35° C.
How it was run: as §1

CCCCCNC(=O)OCC1OC(OC2C(CO)OC(Oc3ccc(CC4NC(=O)C(C(C)c5ccccc5)NC(=O)CNC(=O)C(CO)NC(=O)C(C(O)C5CNC(=N)N5C5OC(CO)C(O)C(O)C5O)NC(=O)C(C(O)C5CNC(=N)N5)NC4=O)cc3)C(O)C2O)C(O)C(O)C1O (centres unmarked) [Example 251b]
MIC Escherichia coli (ATCC 25922) (Escherichia coli): >64 µg/mL | MIC Escherichia coli (GC 4559) (Escherichia coli): >64 µg/mL | MIC Escherichia coli (GC 4560) (Escherichia coli): 2 µg/mL (≈ 1.42 µM) | MIC Coagulase Negative Staphylococcus (GC 4547) (Staphylococcus sp.): 8 µg/mL (≈ 5.68 µM) | MIC Coagulase Negative Staphylococcus (GC 4548) (Staphylococcus sp.): 8 µg/mL (≈ 5.68 µM) | MIC Coagulase Negative Staphylococcus (GC 4549) (Staphylococcus sp.): 4 µg/mL (≈ 2.84 µM) | MIC Coagulase Negative Staphylococcus (GC 4551) (Staphylococcus sp.): 16 µg/mL (≈ 11.4 µM) | MIC Coagulase Negative Staphylococcus (ID-3941) (Staphylococcus sp.): 4 µg/mL (≈ 2.84 µM) | MIC Staphylococcus aureus (ATCC 29213) (Staphylococcus sp.): 16 µg/mL (≈ 11.4 µM) | MIC Staphylococcus aureus (GC 1131) (Staphylococcus sp.): 8 µg/mL (≈ 5.68 µM) | MIC Staphylococcus aureus (GC 4541) (Staphylococcus sp.): 8 µg/mL (≈ 5.68 µM) | MIC Staphylococcus aureus (GC 4542) (Staphylococcus sp.): 8 µg/mL (≈ 5.68 µM) | MIC Staphylococcus aureus (GC 4544) (Staphylococcus sp.): 16 µg/mL (≈ 11.4 µM) | MIC Staphylococcus aureus (GC 4545) (Staphylococcus sp.): 8 µg/mL (≈ 5.68 µM) | MIC Staphylococcus aureus-SMITH (GC 4543) (Staphylococcus sp.): 8 µg/mL (≈ 5.68 µM) | MIC Staphylococcus haemolyticus (GC 4546) (Staphylococcus sp.): 8 µg/mL (≈ 5.68 µM) | MIC Staphylococcus aureus (ATCC 29213) (Staphylococcus sp.; strain ATCC 29213): 16 µg/mL (≈ 11.4 µM) | MIC Staphylococcus aureus (GC 1131) (Staphylococcus sp.; strain GC 1131): 8 µg/mL (≈ 5.68 µM) | MIC Staphylococcus aureus (GC 4541) (Staphylococcus sp.; strain GC 4541): 8 µg/mL (≈ 5.68 µM) | MIC Staphylococcus aureus (GC 4542) (Staphylococcus sp.; strain GC 4542): 8 µg/mL (≈ 5.68 µM) | MIC Staphylococcus aureus-SMITH (GC 4543) (Staphylococcus sp.; strain GC 4543): 8 µg/mL (≈ 5.68 µM) | MIC Staphylococcus aureus (GC 4544) (Staphylococcus sp.; strain GC 4544): 16 µg/mL (≈ 11.4 µM) | MIC Staphylococcus aureus (GC 4545) (Staphylococcus sp.; strain GC 4545): 8 µg/mL (≈ 5.68 µM) | MIC Staphylococcus haemolyticus (GC 4546) (Staphylococcus sp.; strain GC 4546): 8 µg/mL (≈ 5.68 µM) | MIC Coagulase Negative Staphylococcus (GC 4547) (Staphylococcus sp.; strain GC 4547): 8 µg/mL (≈ 5.68 µM) | MIC Coagulase Negative Staphylococcus (GC 4548) (Staphylococcus sp.; strain GC 4548): 8 µg/mL (≈ 5.68 µM) | MIC Coagulase Negative Staphylococcus (GC 4549) (Staphylococcus sp.; strain GC 4549): 4 µg/mL (≈ 2.84 µM) | MIC Coagulase Negative Staphylococcus (GC 4551) (Staphylococcus sp.; strain GC 4551): 16 µg/mL (≈ 11.4 µM) | MIC Coagulase Negative Staphylococcus (ID-3941) (Staphylococcus sp.; strain ID-3941): 4 µg/mL (≈ 2.84 µM) | MIC Enterococcus avium (GC 4558) (Enterococcus sp.): 64 µg/mL (≈ 45.4 µM) | MIC Enterococcus faecalis (ATCC 29212) (Enterococcus sp.): 64 µg/mL (≈ 45.4 µM) | MIC Enterococcus faecalis (GC 2242) (Enterococcus sp.): 32 µg/mL (≈ 22.7 µM) | MIC Enterococcus faecalis (GC 4552) (Enterococcus sp.): 64 µg/mL (≈ 45.4 µM) | MIC Enterococcus faecalis (GC 4553) (Enterococcus sp.): 64 µg/mL (≈ 45.4 µM) | MIC Enterococcus faecalis (GC 4554) (Enterococcus sp.): 64 µg/mL (≈ 45.4 µM) | MIC Enterococcus faecium (GC 2243) (Enterococcus sp.): 64 µg/mL (≈ 45.4 µM) | MIC Enterococcus faecium (GC 4556) (Enterococcus sp.): 64 µg/mL (≈ 45.4 µM) | MIC Enterococcus faecium (GC 4557) (Enterococcus sp.): 4 µg/mL (≈ 2.84 µM) | MIC Enterococcus faecalis (ATCC 29212) (Enterococcus sp.; strain ATCC 29212): 64 µg/mL (≈ 45.4 µM) | MIC Enterococcus faecalis (GC 2242) (Enterococcus sp.; strain GC 2242): 32 µg/mL (≈ 22.7 µM) | MIC Enterococcus faecium (GC 2243) (Enterococcus sp.; strain GC 2243): 64 µg/mL (≈ 45.4 µM) | MIC Enterococcus faecalis (GC 4552) (Enterococcus sp.; strain GC 4552): 64 µg/mL (≈ 45.4 µM) | MIC Enterococcus faecalis (GC 4553) (Enterococcus sp.; strain GC 4553): 64 µg/mL (≈ 45.4 µM) | MIC Enterococcus faecalis (GC 4554) (Enterococcus sp.; strain GC 4554): 64 µg/mL (≈ 45.4 µM) | MIC Enterococcus faecium (GC 4556) (Enterococcus sp.; strain GC 4556): 64 µg/mL (≈ 45.4 µM) | MIC Enterococcus faecium (GC 4557) (Enterococcus sp.; strain GC 4557): 4 µg/mL (≈ 2.84 µM) | MIC Enterococcus avium (GC 4558) (Enterococcus sp.; strain GC 4558): 64 µg/mL (≈ 45.4 µM) | MIC Streptococcus agalactiae (GC 4564) (Streptococcus sp.): 4 µg/mL (≈ 2.84 µM) | MIC Streptococcus pneumoniae (GC 4565) (Streptococcus sp.): 1 µg/mL (≈ 0.71 µM) | MIC Streptococcus pyogenes (ID-3187) (Streptococcus sp.): 2 µg/mL (≈ 1.42 µM) | MIC Streptococcus agalactiae (GC 4564) (Streptococcus sp.; strain GC 4564): 4 µg/mL (≈ 2.84 µM) | MIC Streptococcus pneumoniae (GC 4565) (Streptococcus sp.; strain GC 4565): 1 µg/mL (≈ 0.71 µM) | MIC Streptococcus pyogenes (ID-3187) (Streptococcus sp.; strain ID-3187): 2 µg/mL (≈ 1.42 µM)
